One test concerns Streptococcus faecalis. The test can be described thus: agar plate paper-disc inhibition zone screening. The class given is cell-based. The following applies: Enterococcus faecalis, read-out: Inhibition Zone Diameter mm (Dose mg/ml) S. Faecalis; for zone of inhibition at 3000 µg/mL: Dose 3.0 mg/ml; for zone of inhibition at 500 µg/mL: Dose 0.5 mg/ml. In outline:
(§1)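 Inoculum: saline suspension, 20-35% transmittancy, in molten agar. Discs 12.7 mm, compound 3,000/1,000/500/100/10 mcg/ml, solvent <10%. 37°C, 18-20 h; zone diameter in mm.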

Another test concerns Escherichia coli. Put plainly: agar plate paper-disc inhibition zone screening. The test is classed as cell-based. The following applies: read-out: Inhibition Zone Diameter mm (Dose mg/ml) E. Coli; for zone of inhibition at 3000 µg/mL: Dose 3.0 mg/ml; for zone of inhibition at 500 µg/mL: Dose 0.5 mg/ml; for zone of inhibition at 100 µg/mL: Dose 0.1 mg/ml; for zone of inhibition at 1000 µg/mL: Dose 1.0 mg/ml. In outline:
as §1

A further test has as its system Aerobacter aerogenes. The test can be described thus: agar plate paper-disc inhibition zone screening. The following applies: Klebsiella aerogenes, read-out: Inhibition Zone Diameter mm (Dose mg/ml) A. Aerogenes; for zone of inhibition at 1000 µg/mL: Dose 1.0 mg/ml; for zone of inhibition at 500 µg/mL: Dose 0.5 mg/ml; for zone of inhibition at 3000 µg/mL: Dose 3.0 mg/ml. The test is classed as cell-based. A digest of the protocol:
as §1

The test system of a further test is Bacillus subtilis. Put plainly: agar plate paper-disc inhibition zone screening. The test is classed as cell-based. The following applies: read-out: Inhibition Zone Diameter mm (Dose mg/ml) B. Subtilis; for zone of inhibition at 3000 µg/mL: Dose 3.0 mg/ml; for zone of inhibition at 100 µg/mL: Dose 0.1 mg/ml; for zone of inhibition at 500 µg/mL: Dose 0.5 mg/ml. In outline:
as §1

The subject of another test is Penicillium avellaneum. The test can be described thus: agar plate paper-disc inhibition zone screening. The test is classed as cell-based. The following applies: Hamigera avellanea; Dose 3.0 mg/ml; read-out: Inhibition Zone Diameter mm (Dose mg/ml) P. Avellaneum. A digest of the protocol:
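Mycelia and spores from a six-day 28°C agar culture, suspended in saline with 0.05% Tween 80 at 20% transmittancy, were seeded into molten agar trays. Compounds at 3,000, 1,000, 500, 100 and 10 mcg/ml (solvent <10%) were applied on 12.7 mm paper discs. After at least 20-24 h incubation, inhibition zone diameter was measured in mm.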

Another test deals with L1210 Leukemia. The test can be described thus: L1210 leukemia in vitro. The test is classed as cell-based. The following applies: Mus musculus, procedure of Europ. J. Cancer 17, 671 (1981), read-out: L1210 Leukemia In Vitro ID50 Molar.
Test [1] deals with lymphocytic leukemia P388. The test can be described thus: in vivo lymphocytic leukemia P388 test. The arrangement: species or system mice. The following applies: Mus musculus, P388, ip, 720 h, two single doses four days apart, read-out: T/C × 100 (Percent); for response vs control in vivo at 50 mg/kg: P388, Dose 50 mg/kg intraperitoneally; for response vs control in vivo at 6.25 mg/kg: P388, Dose 6.25 mg/kg intraperitoneally; for response vs control in vivo at 12.5 mg/kg: P388, Dose 12.5 mg/kg intraperitoneally; for response vs control in vivo at 25 mg/kg: P388, Dose 25 mg/kg intraperitoneally; for response vs control in vivo at 1.56 mg/kg: P388, Dose 1.56 mg/kg intraperitoneally; for response vs control in vivo at 3.12 mg/kg: P388, Dose 3.12 mg/kg intraperitoneally; for response vs control in vivo at 100 mg/kg: P388, Dose 100 mg/kg intraperitoneally. A digest of the protocol: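 CD2F mice (6–7 per group) were inoculated intraperitoneally with P388 leukemia ascitic cells. Compounds were then given i.p. as two doses four days apart at various levels. Survival over 30 days was expressed as treated/control time ratio, efficacy criterion T/C×100 >125%.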

Test [2] has as its system HCT-8 (human colon adenocarcinoma) cells. The test can be described thus: in vitro activity against human colon adenocarcinoma (HCT-8), cell count. The class given is cell-based. In outline:
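HCT-8 cells seeded at ~30,000 cells/ml in RPMI 1640 + 10% FCS, grown 48 hrs at 37°C, then exposed to compound 60-65 hrs. Lysed cells counted by Coulter counter; activity as percent of controls, reported as ID50 (molar quantity killing 50% of cells).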

The mark [3] stands for this setting: Homo sapiens, HCT-8 cells, 60-65 hrs with compound, molar quantity of drug required to kill 50% of the tumor cells, read-out: ID50 Molar.

Consider nine compounds from patent publication EP0103381B1, “Substituted anthra(1,9-cd)pyrazol-6(2H)-ones” (WARNER-LAMBERT COMPANY, priority 1982, dated 1984).

Where two headings read alike, the source gives them in different places.

As to `NCCn1nc2c3c(c(Cl)ccc31)C(=O)c1c(O)ccc(O)c1-2` [7,10-(OH)2; Cl*; (CH2)2NH2, 2-(2-Aminoethyl)-5-chloro-7,10-dihydroxyanthra[1,9-cd]pyrazol-6(2H)-one], the zone of inhibition at 3000 µg/mL in the test on Streptococcus faecalis stood at 0 mm; with Escherichia coli it was 15 mm; in the test on Bacillus subtilis, 0 mm; in the test on Penicillium avellaneum it was 0 mm. Also, the zone of inhibition at 1000 µg/mL in the test on Aerobacter aerogenes came to 14 mm. For the same compound, the IC50 in the test with L1210 Leukemia was determined as 630 nM. Further, the response vs control in vivo at 50 mg/kg in test [1] was found to be 125%.

On to `O=C1c2c(O)ccc(O)c2-c2nn(CCNCCO)c3ccc(Cl)c1c23` [7,10-(OH)2; Cl*; (CH2)2NH(CH2)2OH, 5-Chloro-7,10-dihydroxy-2-[2-[(2-hydroxyethyl)amino]ethyl]anthra[1,9-cd]pyrazol-6(2H)-one], for which the zone of inhibition at 3000 µg/mL in the test on Streptococcus faecalis was found to be 0 mm. Moreover, the zone of inhibition at 500 µg/mL in the test with Escherichia coli was 14 mm. In the test on Aerobacter aerogenes, the zone of inhibition at 1000 µg/mL was determined as 14 mm. Further, in the test on Bacillus subtilis, the zone of inhibition at 3000 µg/mL was found to be 0 mm. For the same compound, in the test with Penicillium avellaneum, the zone of inhibition at 3000 µg/mL came out at 0 mm. The IC50 in the test with L1210 Leukemia was 660 nM. Further, in test [1], the response vs control in vivo at 6.25 mg/kg came to 131%, the response vs control in vivo at 12.5 mg/kg was 138%, the response vs control in vivo at 25 mg/kg worked out at 143% and the response vs control in vivo at 50 mg/kg amounted to 161%.

In the case of `CCN(CC)CCNc1ccc2c3c(nn2CCNCCO)-c2ccccc2C(=O)c13` [Example 23, 5-[[2-(Diethylamino)ethyl]amino]-2-[2-[(2-hydroxyethyl)amino]ethyl]anthra[1,9-cd]pyrazol-6(2H)-one], in test [2] (setting [3]), the IC50 turned out to be 120 nM. Besides, the zone of inhibition at 500 µg/mL with Streptococcus faecalis is 15 mm. The zone of inhibition at 100 µg/mL in the test on Escherichia coli is 14 mm. Besides, the zone of inhibition at 500 µg/mL in the test on Aerobacter aerogenes is 18 mm. In addition, the zone of inhibition at 100 µg/mL with Bacillus subtilis was 14 mm. Besides, in the test on Penicillium avellaneum, the zone of inhibition at 3000 µg/mL was 16 mm. For the same compound, in test [1], the response vs control in vivo at 1.56 mg/kg was found to be 138%, the response vs control in vivo at 3.12 mg/kg amounted to 143%, the response vs control in vivo at 6.25 mg/kg was determined as 138% and the response vs control in vivo at 12.5 mg/kg is 150%. Moreover, the response vs control in vivo at 25 mg/kg in test [1] was determined as 149%.

With `CN(C)CCNc1ccc2c3c(nn2CCNCCO)-c2ccccc2C(=O)c13` [Example 25, 2-[2-[(2-Hydroxyethyl)amino]ethyl]-5-[[2-(dimethylamino)ethyl]amino]anthra[1,9-cd]pyrazol-6(2H)-one], the IC50 in test [2] (setting [3]) came out at 230 nM. Moreover, the zone of inhibition at 500 µg/mL in the test on Streptococcus faecalis was 15 mm. The zone of inhibition at 1000 µg/mL in the test on Escherichia coli worked out at 15 mm. Also, the zone of inhibition at 500 µg/mL in the test on Aerobacter aerogenes came to 16 mm. The zone of inhibition at 500 µg/mL with Bacillus subtilis stood at 20 mm. For the same compound, in the test on Penicillium avellaneum, the zone of inhibition at 3000 µg/mL was 0 mm. Moreover, in test [1], the response vs control in vivo at 3.12 mg/kg was determined as 158%, the response vs control in vivo at 6.25 mg/kg came out at 163%, the response vs control in vivo at 12.5 mg/kg worked out at 166% and the response vs control in vivo at 25 mg/kg stood at 162%.

Regarding `NCCn1nc2c3c(c(NCCNCCO)ccc31)C(=O)c1ccccc1-2` [Example 27, 2-(2-Aminoethyl)-5-[[2-[(2-hydroxyethyl)amino]ethyl]amino]anthra[1,9-cd]pyrazol-6(2H)-one], the IC50 in test [2] (setting [3]) was 68 nM. Besides, in the test with Streptococcus faecalis, the zone of inhibition at 3000 µg/mL is 0 mm. Also, the zone of inhibition at 500 µg/mL in the test with Escherichia coli was 14 mm. Moreover, the zone of inhibition at 100 µg/mL in the test with Aerobacter aerogenes (Dose 0.1 mg/ml) was determined as 17 mm. Further, in the test with Bacillus subtilis, the zone of inhibition at 3000 µg/mL was found to be 14 mm. In the test on Penicillium avellaneum, the zone of inhibition at 3000 µg/mL is 0 mm. Further, in test [1], the response vs control in vivo at 1.56 mg/kg is 139%, the response vs control in vivo at 3.12 mg/kg came out at 149%, the response vs control in vivo at 6.25 mg/kg came to 158% and the response vs control in vivo at 12.5 mg/kg was 173%. Also, the response vs control in vivo at 25 mg/kg in test [1] worked out at 187%.

In the case of `CCN(CC)CCNc1ccc2c3c(nn2CCN(CC)CC)-c2c(O)ccc(O)c2C(=O)c13` [Example 29, 2-[2-(Diethylamino)ethyl]-5-[[2-(diethylamino)ethyl]amino]-7,10-dihydroxyanthra[1,9-cd]pyrazol-6(2H)-one], in test [2] (setting [3]), the IC50 stood at 640 nM. In addition, the zone of inhibition at 500 µg/mL in the test with Streptococcus faecalis, with Escherichia coli and in the test on Bacillus subtilis was 14 mm each time. The results for the zone of inhibition at 3000 µg/mL in the test with Aerobacter aerogenes and in the test with Penicillium avellaneum were 0 mm and 16 mm, respectively. Also, the response vs control in vivo at 25 mg/kg in test [1] worked out at 140%. The response vs control in vivo at 100 mg/kg in test [1] is 180%.

In the case of `CCN(CC)CCn1nc2c3c(c(NCCN)ccc31)C(=O)c1c(O)ccc(O)c1-2` [Example 30, 5-[(2-Aminoethyl)amino]-2-(2-(diethylamino)ethyl]-7,10-dihydroxyanthra[1,9-cd]pyrazol-6(2H)-one], the IC50 in test [2] (setting [3]) worked out at 380 nM. Moreover, the zone of inhibition at 3000 µg/mL in the test on Streptococcus faecalis turned out to be 0 mm. In addition, the zone of inhibition at 1000 µg/mL in the test on Escherichia coli worked out at 15 mm. Also, the zone of inhibition at 500 µg/mL in the test with Aerobacter aerogenes is 16 mm. In the test with Bacillus subtilis (Dose 1.0 mg/ml), the zone of inhibition at 1000 µg/mL was found to be 16 mm. For the same compound, the zone of inhibition at 3000 µg/mL with Penicillium avellaneum stood at 14 mm. For the same compound, in test [1], the response vs control in vivo at 1.56 mg/kg came to 172%, the response vs control in vivo at 3.12 mg/kg is 154%, the response vs control in vivo at 6.25 mg/kg was 189% and the response vs control in vivo at 25 mg/kg was 179%.

`CN(C)CCCn1nc2c3c(c(NCCNCCO)ccc31)C(=O)c1c(O)ccc(O)c1-2` [Example 46, 2-[3-(Dimethylamino)propyl]-7,10-dihydroxy-5-[[2-[(2-hydroxyethyl)amino]ethyl]amino]anthra[1,9-cd]pyrazol-6(2H)-one]: in test [2] (HCT-8 human colon adenocarcinoma cells, 60-65 hrs incubation with compound, Coulter counter cell count as percentage of controls, read-out: ID50 (the source's name)), the IC50 was found to be 92 nM. The zone of inhibition at 3000 µg/mL with Streptococcus faecalis amounted to 0 mm; in the test with Escherichia coli, 0 mm; with Aerobacter aerogenes, 16 mm; with Bacillus subtilis it was 0 mm; with Penicillium avellaneum, 0 mm. In test [1], the response vs control in vivo at 6.25 mg/kg amounted to 185%. Also, the response vs control in vivo at 12.5 mg/kg in test [1] turned out to be 218%.

As to `O=C1c2ccccc2-c2nn(CCNCCO)c3ccc(Cl)c1c23` [H; Cl*; (CH2)2NH(CH2)2OH, 5-chloro-2-[2-[(2-hydroxyethyl)amino]ethyl]anthra[1,9-cd]pyrazol-6(2H)-one], the zone of inhibition at 3000 µg/mL in the test on Streptococcus faecalis amounted to 15 mm; with Penicillium avellaneum, 0 mm. Also, the zone of inhibition at 100 µg/mL in the test with Escherichia coli and in the test on Bacillus subtilis was 16 mm in each case. Also, the zone of inhibition at 500 µg/mL in the test with Aerobacter aerogenes was found to be 18 mm. For the same compound, the IC50 in the test with L1210 Leukemia turned out to be 390 nM. The response vs control in vivo at 100 mg/kg in test [1] was 124%.
